Reference: paper PMC9516332 (Frontiers in Oncology, 2022)
Like-named read-outs stand apart in the source and are kept apart here.

Columns and labels:
Experiment in all cases: Kinase panel profiling at 1 µmol/L (MSA or IMAP), percentage inhibition
Assay type in all cases: biochemical
[1] = target: panel of 255 wild-type kinases (Homo sapiens, UniProt P29376); details: read-out: %-inhibition at 1 µmol/L, LTK
[2] = target: panel of 255 wild-type kinases (Homo sapiens, UniProt Q9P1W9); details: read-out: %-inhibition at 1 µmol/L, PIM2
[3] = target: panel of 255 wild-type kinases (Homo sapiens, UniProt Q15303); details: read-out: %-inhibition at 1 µmol/L, HER4
[4] = target: panel of 255 wild-type kinases (Homo sapiens, UniProt Q00526); details: read-out: %-inhibition CDK3/CycE1
[5] = target: panel of 255 wild-type kinases (Homo sapiens, UniProt P22607); details: read-out: %-inhibition at 1 µmol/L, FGFR3
[6] = target: panel of 255 wild-type kinases (Homo sapiens, UniProt Q13557); details: read-out: %-inhibition CaMK2δ
[7] = target: panel of 255 wild-type kinases (Homo sapiens, UniProt Q9UPE1); details: read-out: %-inhibition, MSSK1
[8] = target: T1, panel of 255 wild-type kinases (Homo sapiens, UniProt O60285); details: read-out: %-inhibition, NuaK1
T1 sequence (O60285 1-661): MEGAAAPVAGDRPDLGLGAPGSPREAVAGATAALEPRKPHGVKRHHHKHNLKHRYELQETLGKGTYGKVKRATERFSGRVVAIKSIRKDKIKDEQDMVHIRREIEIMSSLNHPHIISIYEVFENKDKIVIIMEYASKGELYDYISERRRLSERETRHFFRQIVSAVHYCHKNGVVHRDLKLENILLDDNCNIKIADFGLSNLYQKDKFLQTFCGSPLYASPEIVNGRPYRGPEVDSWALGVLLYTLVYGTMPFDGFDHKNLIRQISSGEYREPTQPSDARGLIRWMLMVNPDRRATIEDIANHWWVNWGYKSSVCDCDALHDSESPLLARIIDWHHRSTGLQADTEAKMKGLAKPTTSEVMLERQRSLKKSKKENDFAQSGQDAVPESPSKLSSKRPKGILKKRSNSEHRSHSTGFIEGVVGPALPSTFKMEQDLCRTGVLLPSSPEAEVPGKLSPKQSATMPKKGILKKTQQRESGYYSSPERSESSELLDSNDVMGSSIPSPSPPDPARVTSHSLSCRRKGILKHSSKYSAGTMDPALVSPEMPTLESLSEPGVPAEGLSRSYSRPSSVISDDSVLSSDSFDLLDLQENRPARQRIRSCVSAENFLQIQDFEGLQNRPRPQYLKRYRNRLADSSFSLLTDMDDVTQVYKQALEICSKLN

[9] = target: T2, panel of 255 wild-type kinases (Homo sapiens, UniProt Q96PN8); details: read-out: %-inhibition at 1 µmol/L, TSSK3
T2 sequence (Q96PN8 1-268): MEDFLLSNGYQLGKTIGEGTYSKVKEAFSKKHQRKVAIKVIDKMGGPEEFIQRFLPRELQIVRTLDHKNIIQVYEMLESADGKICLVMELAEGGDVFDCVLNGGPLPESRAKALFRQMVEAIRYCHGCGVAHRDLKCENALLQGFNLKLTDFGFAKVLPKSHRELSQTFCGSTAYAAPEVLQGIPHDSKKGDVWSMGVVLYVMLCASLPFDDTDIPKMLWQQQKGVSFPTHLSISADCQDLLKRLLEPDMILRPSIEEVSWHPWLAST

[10] = target: T3, panel of 255 wild-type kinases (Homo sapiens, UniProt O15530); details: read-out: %-inhibition at 1 µmol/L, PDK1
T3 sequence (O15530 1-556): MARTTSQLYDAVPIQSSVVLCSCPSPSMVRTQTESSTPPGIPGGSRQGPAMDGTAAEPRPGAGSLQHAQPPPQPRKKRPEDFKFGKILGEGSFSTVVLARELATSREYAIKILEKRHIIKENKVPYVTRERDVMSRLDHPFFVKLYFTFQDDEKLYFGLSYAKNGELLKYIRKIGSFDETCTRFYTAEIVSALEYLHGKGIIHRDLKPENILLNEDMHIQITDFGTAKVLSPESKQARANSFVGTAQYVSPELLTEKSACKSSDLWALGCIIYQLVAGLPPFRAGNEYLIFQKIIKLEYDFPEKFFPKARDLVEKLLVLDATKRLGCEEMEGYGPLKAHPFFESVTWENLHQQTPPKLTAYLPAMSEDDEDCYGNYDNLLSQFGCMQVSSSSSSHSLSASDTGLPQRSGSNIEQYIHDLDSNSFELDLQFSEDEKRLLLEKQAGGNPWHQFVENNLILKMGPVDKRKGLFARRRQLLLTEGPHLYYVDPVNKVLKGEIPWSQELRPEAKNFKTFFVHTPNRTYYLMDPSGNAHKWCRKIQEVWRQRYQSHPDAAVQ

[11] = target: panel of 255 wild-type kinases (Homo sapiens, UniProt Q06187); details: read-out: %-inhibition BTK
[12] = target: panel of 255 wild-type kinases (Homo sapiens, UniProt Q9UKE5); details: read-out: %-inhibition at 1 µmol/L, TNIK
[13] = target: panel of 255 wild-type kinases (Homo sapiens, UniProt Q9Y6M4); details: read-out: %-inhibition at 1 µmol/L, CK1γ3
[14] = kinase LTK, 1 µmol/L single concentration
[15] = kinase PIM2, 1 µmol/L single concentration
[16] = kinase HER4, 1 µmol/L single concentration
[17] = CDK3/CycE1 kinase assay, 1 µmol/L single concentration
[18] = kinase FGFR3, 1 µmol/L single concentration
[19] = CaMK2δ kinase assay, 1 µmol/L single concentration
[20] = MSSK1, 1 µmol/L single concentration
[21] = NuaK1, 1 µmol/L single concentration
[22] = kinase TSSK3, 1 µmol/L single concentration
[23] = kinase PDK1, 1 µmol/L single concentration
[24] = BTK kinase assay, 1 µmol/L single concentration
[25] = kinase TNIK, 1 µmol/L single concentration
[26] = kinase CK1γ3, 1 µmol/L single concentration

Compound | inhibition at 1 µM [1, 14] [%] | inhibition at 1 µM [2, 15] [%] | inhibition at 1 µM [3, 16] [%] | inhibition at 1 µM [4, 17] [%] | inhibition at 1 µM [5, 18] [%] | inhibition at 1 µM [6, 19] [%] | inhibition at 1 µM [7, 20] [%] | inhibition at 1 µM [8, 21] [%] | inhibition at 1 µM [9, 22] [%] | inhibition at 1 µM [10, 23] [%] | inhibition at 1 µM [11, 24] [%] | inhibition at 1 µM [12, 25] [%] | inhibition at 1 µM [13, 26] [%] | further results
COC(=O)N[C@@H](C)CNc1nccc(-c2cn(C(C)C)nc2-c2cc(Cl)cc(NS(C)(=O)=O)c2F)n1 [encorafenib] | 0.605 | -1.43 | 14 | -2 | 1 | -2.79 | 1.39 | -0.237 | 4 | -2.17 | -1.36 | 14 | 10 | –
C[C@H](Nc1ncnc2nc[nH]c12)c1cc2cccc(Cl)c2c(=O)n1-c1ccccc1 [duvelisib] | 0.216 | -6.49 | -0.702 | -0.613 | 0.29 | 4 | -2.73 | 0.44 | 3 | 2.42 | 1.85 | 5 | -0.689 | –
CCN1CCN(c2ccc(Nc3cc(N(C)C(=O)Nc4c(Cl)c(OC)cc(OC)c4Cl)ncn3)cc2)CC1 [infigratinib] | 60 | -7 | 26 | -10 | 102 | -1.48 | -2.83 | 8 | -1.43 | 1.36 | – | – | -1.16 | –
CNC(=O)c1ccc(-c2cnc3ncc(Cc4ccc5ncccc5c4)n3n2)cc1F [capmatinib] | – | – | – | – | – | – | – | – | – | – | – | – | – | inhibition at 1 µM [1]: 49%; inhibition at 1 µM [2]: -4.65%; inhibition at 1 µM [3]: 21%; inhibition at 1 µM [4]: -14%; inhibition at 1 µM [5]: 2%; inhibition at 1 µM [6]: -1.07%; inhibition at 1 µM [7]: -3.24%; inhibition at 1 µM [8]: -1.53%; inhibition at 1 µM [9]: -7%; inhibition at 1 µM [10]: 4%; inhibition at 1 µM [11]: 8%; inhibition at 1 µM [12]: 1.68%; inhibition at 1 µM [13]: -1.65%
FC(F)(F)c1ccc(CNc2ccc(Cc3c[nH]c4ncc(Cl)cc34)cn2)cn1 [pexidartinib] | 10 | -2.72 | 13 | -1.23 | 68 | 5.41 | -4 | 8 | 10 | -4.67 | -0.863 | 20 | -0.557 | –
O=C(Nc1cnn2ccc(N3CCC[C@@H]3c3cc(F)ccc3F)nc12)N1CC[C@H](O)C1 [larotrectinib] | 16 | -6.57 | 10 | 1.79 | – | 6 | -1.58 | 13 | 0.55 | 2.15 | -3.71 | 1.8 | -0.832 | inhibition at 1 µM [5]: 1.36%
CCc1nc(C(N)=O)c(Nc2ccc(N3CCC(N4CCN(C)CC4)CC3)c(OC)c2)nc1NC1CCOCC1 [gilteritinib] | 101 | -1.37 | 83 | 7 | 76 | 84 | 22 | 98 | 11 | -1.87 | 81 | 94 | 11 | –
CCn1c(=O)c(-c2cc(NC(=O)Nc3ccccc3)c(F)cc2Br)cc2cnc(NC)cc21 [ripretinib] | 0.637 | -3 | 36 | -4.34 | 52 | 0.353 | -0.94 | 4.32 | -0.0717 | -7 | 4.22 | 28 | -8 | –
CN1CCN(c2ccc(C(=O)Nc3n[nH]c4ccc(Cc5cc(F)cc(F)c5)cc34)c(NC3CCOCC3)c2)CC1 [entrectinib] | 100 | -7.56 | 32 | 5.63 | 90 | 28 | 12 | 102 | 5.68 | 0.207 | 97 | 20 | 0.879 | –
C[C@H]1Oc2cc(cnc2N)-c2c(nn(C)c2C#N)CN(C)C(=O)c2ccc(F)cc21 [lorlatinib] | – | -3.36 | 11 | 3 | -0.405 | 36 | 33 | 26 | 3.55 | 0.602 | 1.48 | 7 | -1 | –
C=CC(=O)N1CCC([C@@H]2CCNc3c(C(N)=O)c(-c4ccc(Oc5ccccc5)cc4)nn32)CC1 [zanubrutinib] | 0.209 | -7 | – | 2.65 | 4.61 | 3 | -2.31 | -7 | 0.315 | 0.547 | – | 6.44 | -0.464 | inhibition at 1 µM [3]: 99%
